Experimental data reported in ChEMBL document CHEMBL2069296, “A novel series of G-quadruplex ligands with selectivity for HIF-expressing osteosarcoma and renal cancer cell lines” (Bioorg Med Chem Lett, 2012).
The source made the active and inactive calls. No cut-off for these calls is given here.

Key:
WI-38 = assay: Cytotoxicity against human WI38 after 96 hrs by SRB assay; type: cell-based; details: WI-38, 96 h
MCF7 = assay: Antiproliferative activity against human MCF7 cells after 96 hrs by SRB assay; type: functional, cell-based; details: MCF7, 96 h
MIA PaCa-2 = assay: Antiproliferative activity against human MIAPaCa2 cells after 96 hrs by SRB assay; type: functional, cell-based; details: MIA PaCa-2, 96 h
HOS-TE85 = assay: Antiproliferative activity against human MNNG-HOS cells after 96 hrs by SRB assay; type: functional, cell-based; details: HOS-TE85, 96 h
PC-3 = assay: Antiproliferative activity against human PC3 cells after 96 hrs by SRB assay; type: functional, cell-based; details: PC-3, 96 h
MG-63 = assay: Antiproliferative activity against human MG63 cells after 96 hrs by SRB assay; type: functional, cell-based; details: MG-63, 96 h
HOS = assay: Antiproliferative activity against human HOS cells after 96 hrs by SRB assay; type: functional, cell-based
HPAC = assay: Antiproliferative activity against human HPAC cells after 96 hrs by SRB assay; type: functional, cell-based
[1] = Antiproliferative activity against human TC71 cells after 96 hrs by SRB assay; type: functional, cell-based; details: TC-71, 96 h
SAOS-2 = assay: Antiproliferative activity against human Saos2 cells after 96 hrs by SRB assay; type: functional, cell-based; details: SAOS-2, 96 h
A549 = assay: Antiproliferative activity against human A549 cells after 96 hrs by SRB assay; type: functional, cell-based; details: A549, 96 h
A498 = assay: Antiproliferative activity against human A498 cells after 96 hrs by SRB assay; type: functional, cell-based; details: A498, 96 h
[2] = Antiproliferative activity against human TC32 cells after 96 hrs by SRB assay; type: functional, cell-based; details: TC-32, 96 h
[3] = Antiproliferative activity against human RCC4/VHL cells after 96 hrs by SRB assay; type: functional, cell-based
[4] = Antiproliferative activity against human RCC4 cells after 96 hrs by SRB assay; type: functional, cell-based; details: RCC4, 96 h
PANC-1 = assay: Antiproliferative activity against human PANC1 cells after 96 hrs by SRB assay; type: functional, cell-based; details: PANC-1, 96 h
OST = assay: Antiproliferative activity against human OST cells after 96 hrs by SRB assay; type: functional, cell-based
[5] = Antiproliferative activity against human TC135 cells after 96 hrs by SRB assay; type: functional, cell-based; details: TC135, 96 h
U2OS [6] = assay: Antiproliferative activity against human U2OS cells after 96 hrs by SRB assay; type: functional, cell-based
[7] = Antiproliferative activity against human 786-O cells after 96 hrs by SRB assay; type: functional, cell-based; details: 786-0, 96 h
Nucleic Acid [8] = assay: Binding affinity to HIF2alpha DNA by surface plasmon resonance assay; type: nucleic-acid assay
Nucleic Acid [9] = assay: Binding affinity to HIF1alpha DNA by surface plasmon resonance assay; type: nucleic-acid assay
Nucleic Acid [10] = assay: Binding affinity to 5'-GGGGCGGGCACGGGGCGGG-3' DNA by surface plasmon resonance; type: nucleic-acid assay
[11] = Therapeutic index, ratio of IC50 for human 786-O cells to IC50 for human WI38 cells; type: cell-based, WI-38; details: 786-O cells and WI38 cells, read-out: Ratio IC50
[12] = molecular target: Hypoxia-inducible factor 1-alpha (Homo sapiens) (UniProt Q16665); assay: Inhibition of HIF1alpha in human U2OS cells in normaxia condition; type: cell-based
[13] = molecular target: T1, Hypoxia inducible factors; HIF-1-alpha, HIF-2-alpha (Homo sapiens) (UniProt Q16665+Q99814); assay: Inhibition of HIF1 transactivation in human U2OS cells after 4 hrs by luciferase reporter gene assay; type: cell-based
[14] = Therapeutic index, ratio of IC50 for human A498 cells to IC50 for human WI38 cells; type: cell-based; details: A498 cells and WI38 cells, read-out: Ratio IC50
[15] = Therapeutic index, ratio of IC50 for human MIAPaCa2 cells to IC50 for human WI38 cells; type: cell-based, MIA PaCa-2; details: MIAPaCa2 cells and WI38 cells, read-out: Ratio IC50
[16] = Therapeutic index, ratio of IC50 for human U2OS cells to IC50 for human WI38 cells; type: cell-based; details: U2OS cells and WI38 cells, read-out: Ratio IC50
[17] = Therapeutic index, ratio of IC50 for human A549 cells to IC50 for human WI38 cells; type: cell-based; details: A549 cells and WI38 cells, read-out: Ratio IC50
[18] = molecular target: Hypoxia-inducible factor 1-alpha (Homo sapiens) (UniProt Q16665); assay: Inhibition of HIF1alpha in human U2OS cells in hypoxia condition; type: cell-based
[19] = Therapeutic index, ratio of IC50 for human OST cells to IC50 for human WI38 cells; type: cell-based; details: OST cells and WI38 cells, read-out: Ratio IC50
[20] = Ratio of cell viability in human RCC4/VHL cells to cell viability in human RCC4 cells in hypoxia condition; type: functional
U2OS [21] = assay: Downregulation of HIF1alpha mRNA level in human U2OS cells at 5 fold IC50 concentration after 4 hrs by RT-PCR analysis relative to untreated control; type: functional
[22] = Therapeutic index, ratio of IC50 for human TC135 cells to IC50 for human WI38 cells; type: cell-based; details: TC135 cells and WI38 cells, read-out: Ratio IC50
Nucleic Acid [23] = assay: Binding affinity to HIF1alpha DNA in by circular dichroism; type: nucleic-acid assay
[24] = Therapeutic index, ratio of IC50 for human MNNG-HOS cells to IC50 for human WI38 cells; type: cell-based, HOS-TE85; details: MNNG-HOS cells and WI38 cells, read-out: Ratio IC50
[25] = Ratio of IC50 for human RCC4/VHL cells to IC50 for human RCC4 cells; type: functional
[26] = Therapeutic index, ratio of IC50 for human MG63 cells to IC50 for human WI38 cells; type: cell-based, WI-38; details: MG63 cells and WI38 cells, read-out: Ratio IC50
[27] = molecular target: T1, Hypoxia inducible factors; HIF-1-alpha, HIF-2-alpha (Homo sapiens); assay: Inhibition of HIF1 transactivation in human U2OS cells after 4 hrs by luciferase reporter gene assay relative to untreated control; type: cell-based; details: concentration not given here
U2OS [28] = assay: Downregulation of HIF1alpha protein level in human U2OS cells at 5 fold IC50 concentration within 2 hrs by Western blot analysis; type: functional, cell-based

Sequence of Hypoxia-inducible factor 1-alpha (Homo sapiens) (Q16665 whole entry, looked up): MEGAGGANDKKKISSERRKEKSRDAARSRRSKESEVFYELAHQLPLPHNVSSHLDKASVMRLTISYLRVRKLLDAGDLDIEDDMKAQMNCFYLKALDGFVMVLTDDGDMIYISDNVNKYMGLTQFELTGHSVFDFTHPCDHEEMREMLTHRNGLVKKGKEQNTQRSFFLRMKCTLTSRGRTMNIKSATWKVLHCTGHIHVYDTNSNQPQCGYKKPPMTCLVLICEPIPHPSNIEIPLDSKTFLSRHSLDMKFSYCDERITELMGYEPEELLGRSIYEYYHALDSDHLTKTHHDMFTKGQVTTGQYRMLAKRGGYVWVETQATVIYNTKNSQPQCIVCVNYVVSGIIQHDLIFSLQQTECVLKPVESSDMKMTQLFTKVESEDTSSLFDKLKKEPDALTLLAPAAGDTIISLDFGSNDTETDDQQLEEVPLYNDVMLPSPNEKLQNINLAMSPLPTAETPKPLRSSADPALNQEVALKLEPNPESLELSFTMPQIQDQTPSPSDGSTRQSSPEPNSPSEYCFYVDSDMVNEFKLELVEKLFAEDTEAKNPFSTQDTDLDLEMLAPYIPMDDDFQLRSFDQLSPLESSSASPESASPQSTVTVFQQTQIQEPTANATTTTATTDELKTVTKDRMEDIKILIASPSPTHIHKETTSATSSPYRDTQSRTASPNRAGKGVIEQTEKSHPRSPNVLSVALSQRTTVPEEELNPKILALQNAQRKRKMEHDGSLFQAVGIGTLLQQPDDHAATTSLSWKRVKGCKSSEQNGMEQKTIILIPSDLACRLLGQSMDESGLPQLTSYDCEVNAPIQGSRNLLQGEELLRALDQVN

SMILES: O=C(CCN1CCCC1)Nc1ccc(-n2cc(-c3ccc4ccc(-c5cn(-c6ccc(NC(=O)CCN7CCCC7)cc6)nn5)cc4c3)nn2)cc1
- IC50 (WI-38): 3.9 µM
- IC50 (MCF7): 8.1 µM
- IC50 (MIA PaCa-2): 7.2 µM
- IC50 (HOS-TE85): 2.1 µM
- IC50 (PC-3): 7.1 µM
- IC50 (MG-63): 2.8 µM
- IC50 (HOS): 0.6 µM
- IC50 (HPAC): 1.9 µM
- IC50 [1]: 16 µM
- IC50 (SAOS-2): 1.8 µM
- IC50 (A549): 17 µM
- IC50 (A498): 1.9 µM
- IC50 [2]: 0.7 µM
- IC50 [3]: 2.6 µM
- IC50 [4]: 2.5 µM
- IC50 (PANC-1): 7.8 µM
- IC50 (OST): 0.9 µM
- IC50 [5]: 2.2 µM
- IC50 (U2OS [6]): 2.2 µM
- IC50 [7]: 6.5 µM

SMILES: CCN(CC)CCC(=O)Nc1cccc(-n2cc(-c3ccc4ccc(-c5cn(-c6cccc(NC(=O)CCN(CC)CC)c6)nn5)cc4c3)nn2)c1
- IC50 (WI-38): 10.6 µM
- IC50 (MCF7): 21 µM
- IC50 (MIA PaCa-2): 17.5 µM
- IC50 (HOS-TE85): 3.1 µM
- IC50 (PC-3): 7.8 µM
- IC50 [1]: 28 µM
- IC50 (SAOS-2): 2.8 µM
- IC50 (A549): 29 µM
- IC50 (A498): 9.9 µM
- IC50 [2]: 2.5 µM
- IC50 [3]: 2.7 µM
- IC50 [4]: 1.6 µM
- IC50 (PANC-1): 7.4 µM
- IC50 (OST): 2.1 µM
- IC50 [5]: 2.6 µM
- IC50 (U2OS [6]): 7.8 µM
- IC50 [7]: 9.8 µM

SMILES: O=C(CN1CCCC1)Nc1ccc(-n2cc(-c3ccc4ccc(-c5cn(-c6ccc(NC(=O)CN7CCCC7)cc6)nn5)cc4c3)nn2)cc1
- IC50 (WI-38): 26 µM
- K (Nucleic Acid [8]): 0.97 ×10⁷ /M
- IC50 (MCF7): > 100 µM
- IC50 (MIA PaCa-2): 25.5 µM
- IC50 (HOS-TE85): 9.1 µM
- IC50 (PC-3): 91 µM
- IC50 (MG-63): > 10 µM
- IC50 (HOS): 2.6 µM
- K (Nucleic Acid [9]): 1.49 ×10⁷ /M
- IC50 (HPAC): 9.5 µM
- IC50 [1]: 14 µM
- IC50 (SAOS-2): 9 µM
- IC50 (A549): 80.5 µM
- IC50 (A498): 3.5 µM
- IC50 [2]: 2.5 µM
- IC50 [3]: 6.4 µM
- IC50 [4]: 5.1 µM
- IC50 (PANC-1): 88 µM
- IC50 (OST): 14 µM
- K (Nucleic Acid [10]): inactive
- IC50 [5]: 3.2 µM
- IC50 (U2OS [6]): 18 µM
- IC50 [7]: 2.6 µM

SMILES: O=C(CN1CCCCC1)Nc1cccc(-n2cc(-c3ccc4ccc(-c5cn(-c6cccc(NC(=O)CN7CCCCC7)c6)nn5)cc4c3)nn2)c1
- IC50 (WI-38): > 10 µM
- K (Nucleic Acid [8]): 0.59 ×10⁷ /M
- IC50 (MCF7): > 100 µM
- IC50 (MIA PaCa-2): > 100 µM
- IC50 (HOS-TE85): 23 µM
- IC50 (PC-3): > 100 µM
- IC50 (MG-63): 90 µM
- IC50 (HOS): 47 µM
- K (Nucleic Acid [9]): 0.81 ×10⁷ /M
- IC50 (HPAC): 96 µM
- IC50 [1]: 81 µM
- IC50 (SAOS-2): 16 µM
- IC50 (A549): > 100 µM
- IC50 (A498): 19 µM
- IC50 [2]: 6.6 µM
- IC50 [3]: 2.7 µM
- IC50 [4]: 2.6 µM
- IC50 (PANC-1): > 100 µM
- IC50 (OST): 37 µM
- K (Nucleic Acid [10]): inactive
- IC50 [5]: 14 µM
- IC50 (U2OS [6]): 22 µM
- IC50 [7]: 17.5 µM

SMILES: CCN(CC)CC(=O)Nc1cccc(-n2cc(-c3ccc4ccc(-c5cn(-c6cccc(NC(=O)CN(CC)CC)c6)nn5)cc4c3)nn2)c1
- IC50 (WI-38): 91 µM
- K (Nucleic Acid [8]): 0.27 ×10⁷ /M
- selectivity ratio [11]: 40
- IC50 (MCF7): 63 µM
- inhibition [12]: Dose-dependent effect
- inhibition [13]: Dose-dependent effect
- selectivity ratio [14]: 40
- selectivity ratio [15]: 40
- selectivity ratio [16]: 40
- selectivity ratio [17]: 40
- inhibition [18]: Dose-dependent effect
- selectivity ratio [19]: 40
- IC50 (MIA PaCa-2): 16.8 µM
- IC50 (HOS-TE85): 3.2 µM
- Ratio [20]: 2.1
- IC50 (PC-3): 8.05 µM
- IC50 (MG-63): 7.9 µM
- IC50 (HOS): 2.4 µM
- K (Nucleic Acid [9]): 0.29 ×10⁷ /M
- Activity (U2OS [21]): 79.7%
- IC50 (HPAC): 7.3 µM
- selectivity ratio [22]: 40
- IC50 [1]: 7.8 µM
- IC50 (SAOS-2): 2.6 µM
- Activity (Nucleic Acid [23]): Active
- selectivity ratio [24]: 40
- Ratio IC50 [25]: 2
- IC50 (A549): 60 µM
- IC50 (A498): 2.5 µM
- selectivity ratio [26]: 40
- IC50 [2]: 0.9 µM
- inhibition [27]: 7%
- IC50 [3]: 2.6 µM
- IC50 [4]: 1.3 µM
- IC50 (PANC-1): 31 µM
- IC50 (OST): 2.6 µM
- Activity (U2OS [28]): Active
- K (Nucleic Acid [10]): < 100000 M⁻¹
- IC50 [5]: 2.4 µM
- IC50 (U2OS [6]): 5.5 µM
- IC50 [7]: 2.3 µM
